molecular target: S1P5 (Homo sapiens, UniProt Q9H228); test: [35S]-GTPγS binding assay (S1P5 agonism), CHO cell membranes; assay type: biochemical; settings: membranes of CHO cells expressing recombinant S1P5 receptors, measure of S1P5 agonism
Experimental: CHO cells expressing recombinant S1P5 receptors were cultured in 500 cm^2 culture trays and, once confluent, rinsed and detached with cell-lifting buffer (10 mM HEPES, 154 mM NaCl, 6.85 mM EDTA, pH 7.4). Cells were then pelleted by centrifugation, resuspended, and homogenized in membrane preparation buffer (10 mM HEPES and 10 mM EDTA, pH 7.4) using a Polytron PT 1200E homogenizer (Kinematica, Luzern, Switzerland). Cellular proteins were pelleted by centrifugation at 48,000×g at 4° C. for 30 minutes. The resulting supernatant was discarded, and the pellet was re-suspended again in membrane preparation buffer, homogenized for a second time, and then centrifuged again as described above. The final cellular protein pellet was suspended in ice cold resuspension buffer (10 mM HEPES and 0.1 mM EDTA, pH 7.4), divided into aliquots, and stored at −80° C. until use.
Functional binding assays for [^35S]-GTPγS were performed in 96-well non-binding surface plates with a final volume of 200 μL. The test compounds were serially diluted in DMSO and added to assay plates using a Tecan D300E digital printer with a total volume of […]. The control sphingosine-1-phosphate (S1P) was prepared separately by preparing a 400 μM stock solution from a 100 nmol pellet of S1P in 10 mM Na2CO3 with 2% […]. The serial dilution of S1P was done using complete assay buffer (20 mM HEPES, 10 mM MgCl2, 100 mM NaCl, 1 mM EDTA, 0.1% fatty acid free bovine serum albumin (BSA), and 30 μg/mL saponin, pH 7.4) and transferred to wells already containing 0.4 μL DMSO. All the wells were then loaded to a total volume of 40 μL of complete assay buffer, except the non-specific binding (NSB) wells. For NSB wells, 40 μL/well of 50 μM GTPγS (Sigma Aldrich, cat #G8634, St. Louis, MO) was added to wells containing 0.4 μL of DMSO. The assay was started by the addition of 120 μL/well of CHO-SlP receptor membrane solution containing 40 μg/mL of membrane protein, 16.67 μM guanosine diphosphate (GDP; Sigma Aldrich, cat #G7127, St. Louis, MO), and 2.5 mg/mL of WGA PVT SPA beads in complete buffer. Assay plates were then sealed and incubated at room temperature with gentle agitation for 30 minutes. Next, 40 µL/well of 1 nM of [^35S]-GTPγS (PerkinElmer, cat #NEG030X25OUC, Waltham, MA) in basic assay buffer (20 mM HEPES, 10 mM MgCl2, 100 mM NaCl, and 1 mM EDTA, pH7.4) was added to the assay plates to yield a final concentration of 200 pM and the plates were further incubated for 40 minutes at room temperature with gentle agitation. The assay was terminated by centrifugation of the plates at 1000 rpm for 3 minutes using an Eppendorf 5810R centrifuge (Eppendorf, Hamburg, Germany) and G protein bound radioactivity was quantitated using a MicroBeta2 microplate scintillation counter (PerkinElmer, Waltham, MA). As G protein bound radioactivity directly correlates to receptor activation and coupling to the G protein, this assay is a measure of S1P5 agonism.

S1P5, sequence (Q9H228 whole entry, species assumed): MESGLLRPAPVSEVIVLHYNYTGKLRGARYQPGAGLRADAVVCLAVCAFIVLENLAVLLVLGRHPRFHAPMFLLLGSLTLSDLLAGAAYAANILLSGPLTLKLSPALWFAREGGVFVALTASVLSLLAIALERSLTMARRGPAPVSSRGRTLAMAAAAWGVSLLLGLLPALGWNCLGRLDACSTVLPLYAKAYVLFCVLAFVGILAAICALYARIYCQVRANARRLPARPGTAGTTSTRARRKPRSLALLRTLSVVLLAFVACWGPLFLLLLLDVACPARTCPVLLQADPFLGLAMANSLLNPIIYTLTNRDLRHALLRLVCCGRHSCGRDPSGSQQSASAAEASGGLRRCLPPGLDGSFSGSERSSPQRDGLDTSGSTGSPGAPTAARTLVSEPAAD

CC1CC(C(=O)O)CCN1C1CCc2cc(OCc3c(Cl)cccc3Cl)ccc21 (stereo not shown) [Compound 30, 1-(5-((2,6-dichlorobenzyl)oxy)-2,3-dihydro-1H-inden-1-yl)-2-methylpiperidine-4-carboxylic acid] and CC1CC(C(=O)O)CC(C)N1C1CCc2cc(OCc3c(Cl)cccc3Cl)ccc21 (stereo not shown) [Compound 31, 1-(5-((2,6-dichlorobenzyl)oxy)-2,3-dihydro-1H-inden-1-yl)-2,6-dimethylpiperidine-4-carboxylic acid] fall in the same range of EC50: 10 to 100 nM for the first, 10 to 100 nM for the second.

O=C(O)C1CCN(C2CCc3cc(OCc4c(Cl)cccc4Cl)cc(F)c32)CC1 (stereo not shown) [Compound 32, 1-(5-((2,6-dichlorobenzyl)oxy)-7-fluoro-2,3-dihydro-1H-inden-1-yl)piperidine-4-carboxylic acid] and Cc1cc(OCc2c(Cl)cccc2Cl)cc2c1C(N1CCC(C(=O)O)CC1)CC2 (stereo not shown) [Compound 35, 1-(5-((2,6-dichlorobenzyl)oxy)-7-methyl-2,3-dihydro-1H-inden-1-yl)piperidine-4-carboxylic acid] cannot be ordered by EC50: 1 to 10 nM for the first, ≤ 1 nM for the second.

O=C(O)C1CCN(C2CCc3cc(OCc4c(Cl)cccc4Cl)c(F)cc32)CC1 (stereo not shown) [Compound 33, 1-(5-((2,6-dichlorobenzyl)oxy)-6-fluoro-2,3-dihydro-1H-inden-1-yl)piperidine-4-carboxylic acid] and Cc1cc2c(cc1OCc1c(Cl)cccc1Cl)CCC2N1CCC(C(=O)O)CC1 (stereo not shown) [Compound 37, 1-(5-((2,6-dichlorobenzyl)oxy)-6-methyl-2,3-dihydro-1H-inden-1-yl)piperidine-4-carboxylic acid] fall in the same range of EC50: 1 to 10 nM for the first, 1 to 10 nM for the second.

O=C(O)C1CCN(C2CCc3c2ccc(OCc2c(Cl)cccc2Cl)c3F)CC1 (stereo not shown) [Compound 34, 1-(5-((2,6-dichlorobenzyl)oxy)-4-fluoro-2,3-dihydro-1H-inden-1-yl)piperidine-4-carboxylic acid] and Cc1c(OCc2c(Cl)cccc2Cl)ccc2c1CCC2N1CCC(C(=O)O)CC1 (stereo not shown) [Compound 36, 1-(5-((2,6-dichlorobenzyl)oxy)-4-methyl-2,3-dihydro-1H-inden-1-yl)piperidine-4-carboxylic acid] cannot be ordered by EC50: ≤ 1 nM for the first, ≤ 1 nM for the second.

First: CC1CC(N2CCC(C(=O)O)CC2)c2ccc(OCc3c(Cl)cccc3Cl)cc21 (stereo not shown) [Compound 38, 1-(5-((2,6-dichlorobenzyl)oxy)-3-methyl-2,3-dihydro-1H-inden-1-yl)piperidine-4-carboxylic acid]
Second: CC1(C)CC(N2CCC(C(=O)O)CC2)c2ccc(OCc3c(Cl)cccc3Cl)cc21 (stereo not shown) [Compound 39]
The EC50 of the first is lower: 1 to 10 nM for the first, 10 to 100 nM for the second.
